The record followed here is patent US8022206B2 (OSI Pharmaceuticals, LLC, priority 2008, dated 2011).

One experiment has as its target RON (human) (Homo sapiens, UniProt Q04912). Kind of experiment: RON (human) AlphaScreen kinase assay, Km of ATP. In kind it is biochemical. The conditions noted are these: AlphaScreen, Km of ATP; read-out: RON biochemical IC50. The gist of the method:
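Detection used PT66 AlphaScreen beads added in Tris pH 7.5/NaCl/EDTA/BSA buffer, read after 1 h incubation. Vehicle-only DMSO wells served as controls.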
For orientation: Alpha assays give light when donor and acceptor beads are brought close together.

Another experiment addresses MET (human) (Homo sapiens, UniProt P08581). The experiment is described as follows: MET (human) AlphaScreen kinase assay, Km of ATP. In kind it is biochemical. The conditions noted are these: AlphaScreen, Km of ATP; read-out: Met biochemical IC50. The gist of the method:
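Human MET at lot-optimised concentration in 50 mM Tris pH 7.4 buffer with 1 mM DTT, compound at 1% DMSO final; enzyme starts the reaction, 60 min at RT.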

Sequence of RON (human) (Q04912 25-1400): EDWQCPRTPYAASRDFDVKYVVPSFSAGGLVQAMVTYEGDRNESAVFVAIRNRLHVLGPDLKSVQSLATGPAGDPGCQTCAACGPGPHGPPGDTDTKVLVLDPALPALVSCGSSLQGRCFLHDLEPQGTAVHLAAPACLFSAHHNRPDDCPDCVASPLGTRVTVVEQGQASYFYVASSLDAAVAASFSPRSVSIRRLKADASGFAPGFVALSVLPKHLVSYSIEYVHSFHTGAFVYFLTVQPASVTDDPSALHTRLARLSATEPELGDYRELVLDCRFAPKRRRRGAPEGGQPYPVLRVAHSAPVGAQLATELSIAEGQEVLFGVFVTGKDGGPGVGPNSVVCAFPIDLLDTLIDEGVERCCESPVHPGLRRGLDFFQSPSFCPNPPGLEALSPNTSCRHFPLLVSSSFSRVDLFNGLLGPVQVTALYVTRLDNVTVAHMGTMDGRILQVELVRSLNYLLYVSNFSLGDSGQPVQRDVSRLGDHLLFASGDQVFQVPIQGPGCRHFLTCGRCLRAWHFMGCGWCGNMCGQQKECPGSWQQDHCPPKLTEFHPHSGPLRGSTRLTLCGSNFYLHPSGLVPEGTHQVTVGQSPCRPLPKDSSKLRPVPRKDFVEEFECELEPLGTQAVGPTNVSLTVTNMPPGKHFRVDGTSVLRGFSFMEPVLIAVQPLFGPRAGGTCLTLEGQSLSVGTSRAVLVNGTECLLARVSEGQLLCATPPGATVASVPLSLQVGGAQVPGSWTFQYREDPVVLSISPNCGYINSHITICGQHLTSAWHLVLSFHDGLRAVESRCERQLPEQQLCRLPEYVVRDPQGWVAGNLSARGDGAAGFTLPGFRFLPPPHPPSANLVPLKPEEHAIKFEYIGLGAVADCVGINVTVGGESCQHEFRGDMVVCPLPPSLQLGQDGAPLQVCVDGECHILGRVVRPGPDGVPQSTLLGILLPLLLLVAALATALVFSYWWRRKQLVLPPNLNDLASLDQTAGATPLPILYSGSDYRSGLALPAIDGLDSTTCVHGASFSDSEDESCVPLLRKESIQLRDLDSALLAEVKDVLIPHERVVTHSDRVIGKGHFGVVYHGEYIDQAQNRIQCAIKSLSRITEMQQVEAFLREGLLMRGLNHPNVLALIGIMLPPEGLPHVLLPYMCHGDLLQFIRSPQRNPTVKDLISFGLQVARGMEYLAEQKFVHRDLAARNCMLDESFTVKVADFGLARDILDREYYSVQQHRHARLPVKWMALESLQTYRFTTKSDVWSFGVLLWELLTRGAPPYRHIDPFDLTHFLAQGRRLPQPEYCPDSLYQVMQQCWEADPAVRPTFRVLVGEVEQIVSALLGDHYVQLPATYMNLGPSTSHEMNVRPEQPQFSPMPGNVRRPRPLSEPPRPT
Sequence of MET (human) (P08581 25-1390): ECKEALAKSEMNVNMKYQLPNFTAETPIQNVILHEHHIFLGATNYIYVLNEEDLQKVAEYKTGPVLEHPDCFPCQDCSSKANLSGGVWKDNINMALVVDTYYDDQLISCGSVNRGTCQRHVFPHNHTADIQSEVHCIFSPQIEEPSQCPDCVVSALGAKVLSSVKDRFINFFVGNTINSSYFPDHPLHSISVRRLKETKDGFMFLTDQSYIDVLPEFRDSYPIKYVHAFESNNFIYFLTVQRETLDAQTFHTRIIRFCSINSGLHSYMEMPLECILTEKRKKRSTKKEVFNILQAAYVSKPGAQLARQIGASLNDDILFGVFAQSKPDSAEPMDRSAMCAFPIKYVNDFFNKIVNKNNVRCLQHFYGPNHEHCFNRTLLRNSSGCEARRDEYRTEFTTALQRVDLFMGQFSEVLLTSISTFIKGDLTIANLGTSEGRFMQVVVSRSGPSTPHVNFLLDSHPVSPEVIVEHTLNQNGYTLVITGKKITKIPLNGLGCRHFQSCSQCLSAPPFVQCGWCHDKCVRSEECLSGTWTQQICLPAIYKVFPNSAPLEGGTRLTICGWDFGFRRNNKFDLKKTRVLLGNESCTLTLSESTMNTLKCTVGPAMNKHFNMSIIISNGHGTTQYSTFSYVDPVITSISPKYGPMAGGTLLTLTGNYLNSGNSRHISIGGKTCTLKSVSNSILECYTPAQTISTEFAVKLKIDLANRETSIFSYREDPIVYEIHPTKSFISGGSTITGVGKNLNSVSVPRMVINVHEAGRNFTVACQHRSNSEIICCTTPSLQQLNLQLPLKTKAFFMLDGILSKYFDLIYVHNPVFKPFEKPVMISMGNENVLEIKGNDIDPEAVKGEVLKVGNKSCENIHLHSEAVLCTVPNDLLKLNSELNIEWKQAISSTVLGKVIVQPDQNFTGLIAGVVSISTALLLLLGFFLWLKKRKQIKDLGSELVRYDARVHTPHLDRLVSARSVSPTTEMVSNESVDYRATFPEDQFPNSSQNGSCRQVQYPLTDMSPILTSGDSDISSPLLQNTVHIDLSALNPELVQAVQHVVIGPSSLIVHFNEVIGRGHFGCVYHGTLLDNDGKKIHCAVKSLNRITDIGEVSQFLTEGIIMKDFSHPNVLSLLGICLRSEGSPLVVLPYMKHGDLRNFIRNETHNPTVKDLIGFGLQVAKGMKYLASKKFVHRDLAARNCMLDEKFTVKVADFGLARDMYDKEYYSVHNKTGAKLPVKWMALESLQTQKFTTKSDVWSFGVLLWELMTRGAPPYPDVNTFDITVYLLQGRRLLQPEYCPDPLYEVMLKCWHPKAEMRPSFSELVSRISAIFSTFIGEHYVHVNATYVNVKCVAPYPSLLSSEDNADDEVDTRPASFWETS

For the compound `CC(Oc1c(N)ncc2c(-c3cnn(C4CCNCC4)c3)coc12)c1ccccc1OC(F)(F)F` (centres unmarked) [Example 354, 3-(1-Piperidin-4-yl-1H-pyrazol-4-yl)-7-[1-(2-trifluoromethoxy-phenyl)ethoxy]furo[3,2-c]pyridin-6-ylamine], the IC50 on RON (human) and on MET (human) was 500 to 5000 nM each time.

In the case of `CC(Oc1c(N)ncc2c(-c3cnn(C4CCNCC4)c3)coc12)c1ccc(OC(F)(F)F)cc1` (centres unmarked) [Example 355, 3-(1-Piperidin-4-yl-1H-pyrazol-4-yl)-7-[1-(4-trifluoromethoxy-phenyl)ethoxy]furo[3,2-c]pyridin-6-ylamine], the IC50 on RON (human) and at MET (human) was 500 to 5000 nM in each case.

With `Nc1ncc2c(-c3cnn(C4CCNCC4)c3)coc2c1OC/C=C/c1c(Cl)ccc(F)c1Cl` [Example 356, 7-[(E)-3-(2,6-Dichloro-3-fluorophenyl)allyloxy]-3-(1-piperidin-4-yl-1H-pyrazol-4-yl)furo[3,2-c]pyridin-6-ylamine], the half-maximal inhibitory concentration (IC50) on RON (human) and on MET (human) was less than 500 nM each time.

As to `COc1cccc(Cl)c1C(C)Oc1c(N)ncc2c(-c3cnn(C4CCNCC4)c3)coc12` (centres unmarked) [Example 359, 7-[1-(2-Chloro-6-methoxyphenyl)ethoxy]-3-(1-piperidin-4-yl-1H-pyrazol-4-yl)furo[3,2-c]pyridin-6-ylamine], the concentration for half-maximal inhibition (IC50) on RON (human) and at MET (human) was less than 500 nM each time.

For the compound `COc1cc(Cl)cc(Cl)c1C(C)Oc1c(N)ncc2c(-c3cnn(C4CCNCC4)c3)coc12` (centres unmarked) [Example 360, 7-[1-(2,4-Dichloro-6-methoxyphenyl)ethoxy]-3-(1-piperidin-4-yl-1H-pyrazol-4-yl)furo[3,2-c]pyridin-6-ylamine], the results for the IC50 at RON (human) and at MET (human) were 500 to 5000 nM and less than 500 nM, respectively.

Take `CC(Oc1c(N)ncc2c(-c3cnn(C4CCNCC4)c3)coc12)c1c(Cl)cccc1Br` (centres unmarked) [Example 361, 7-[1-(2-Bromo-6-chlorophenyl)ethoxy]-3-(1-piperidin-4-yl-1H-pyrazol-4-yl)furo[3,2-c]pyridin-6-ylamine]: the IC50 on RON (human) and on MET (human) was less than 500 nM in each case.

On to `Cc1ccnc(C)c1C(C)Oc1c(N)ncc2c(-c3cnn(C4CCNCC4)c3)coc12` (centres unmarked) [Example 362, 7-[1-(2,4-Dimethylpyridin-3-yl)ethoxy]-3-(1-piperidin-4-yl-1H-pyrazol-4-yl)furo[3,2-c]pyridin-6-ylamine], for which the figures for the IC50 on RON (human) and on MET (human) were 500 to 5000 nM and less than 500 nM, respectively.

As for `C=C(C)CC(Oc1c(N)ncc2c(-c3cnn(C4CCNCC4)c3)coc12)c1c(Cl)cccc1Cl` (centres unmarked) [Example 363, 7-[1-(2,6-Dichlorophenyl)-3-methylbut-3-enyloxy]-3-(1-piperidin-4-yl-1H-pyrazol-4-yl)furo[3,2-c]pyridin-6-ylamine], the 50% inhibitory concentration (IC50) at RON (human) and on MET (human) was 500 to 5000 nM each time.

`CC(Oc1c(N)ncc2c(-c3cnn(C4CCNCC4)c3)coc12)c1c(Cl)cccc1C(F)(F)F` (centres unmarked) [Example 365, 7-[1-(2-Chloro-6-trifluoromethylphenyl)ethoxy]-3-(1-piperidin-4-yl-1H-pyrazol-4-yl)furo[3,2-c]pyridin-6-ylamine]: the concentration for half-maximal inhibition (IC50) on RON (human) was 500 to 5000 nM; on MET (human) it was less than 500 nM.

Consider `CC(C)CC(Oc1c(N)ncc2c(-c3cnn(C4CCNCC4)c3)coc12)c1c(Cl)ccc(F)c1Cl` (centres unmarked) [Example 366, 7-[1-(2,6-Dichloro-3-fluorophenyl)-3-methylbutoxy]-3-(1-piperidin-4-yl-1H-pyrazol-4-yl)furo[3,2-c]pyridin-6-ylamine], for which the IC50 at RON (human) and on MET (human) was 500 to 5000 nM in each case.

As for `Nc1ncc2c(-c3cnn(C4CCNCC4)c3)coc2c1OC(c1c(F)ccc(F)c1Cl)C1CC1` (centres unmarked) [Example 367, 7-[(2-Chloro-3,6-difluorophenyl)cyclopropylmethoxy]-3-(1-piperidin-4-yl-1H-pyrazol-4-yl)furo[3,2-c]pyridin-6-ylamine], the IC50 on RON (human) and at MET (human) was less than 500 nM in each case.

For `Nc1ncc2c(-c3cnn(C4CCNCC4)c3)coc2c1OC(CCc1ccccc1)c1c(Cl)ccc(F)c1Cl` (centres unmarked) [Example 368, 7-[1-(2,6-Dichloro-3-fluorophenyl)-3-phenylpropoxy]-3-(1-piperidin-4-yl-1H-pyrazol-4-yl)furo[3,2-c]pyridin-6-ylamine], the concentration for half-maximal inhibition (IC50) at RON (human) and on MET (human) was 500 to 5000 nM in each case.

On to `CC(Oc1c(N)ncc2c(-c3cnn(C4CCNCC4)c3)coc12)c1c(Cl)ccc2ccccc12` (centres unmarked) [Example 369, 7-[1-(2-Chloronaphthalen-1-yl)ethoxy]-3-(1-piperidin-4-yl-1H-pyrazol-4-yl)furo[3,2-c]pyridin-6-ylamine], for which the 50% inhibitory concentration (IC50) at RON (human) and at MET (human) was 500 to 5000 nM throughout.

Regarding `CC(Cc1ccc(Cl)cc1)Oc1c(N)ncc2c(-c3cnn(C4CCNCC4)c3)coc12` (centres unmarked) [Example 370, 7-[2-(4-Chlorophenyl)-1-methylethoxy]-3-(1-piperidin-4-yl-1H-pyrazol-4-yl)furo[3,2-c]pyridin-6-ylamine], the IC50 on RON (human) is 500 to 5000 nM; at MET (human), less than 500 nM.

In the case of `CC(Cc1c(Cl)cccc1Br)Oc1c(N)ncc2c(-c3cnn(C4CCNCC4)c3)coc12` (centres unmarked) [Example 371, 7-[2-(2-Bromo-6-chlorophenyl)-1-methylethoxy]-3-(1-piperidin-4-yl-1H-pyrazol-4-yl)furo[3,2-c]pyridin-6-ylamine], the results for the half-inhibitory concentration (IC50) at RON (human) and on MET (human) were 500 to 5000 nM and less than 500 nM, respectively.

Regarding `CC(Oc1c(N)ncc2c(-c3cnn(C4CCNCC4)c3)coc12)c1c(F)cc(Cl)cc1Cl` (centres unmarked) [Example 372, 7-[1-(2,4-Dichloro-6-fluorophenyl)ethoxy]-3-(1-piperidin-4-yl-1H-pyrazol-4-yl)furo[3,2-c]pyridin-6-ylamine], the half-inhibitory concentration (IC50) on RON (human) is 500 to 5000 nM; at MET (human) it was less than 500 nM.

In the case of `CC(/C=C/c1c(Cl)ccc(F)c1Cl)Oc1c(N)ncc2c(-c3cnn(C4CCNCC4)c3)coc12` (centres unmarked) [Example 373, 7-[(E)-3-(2,6-Dichloro-3-fluorophenyl)-1-methylallyloxy]-3-(1-piperidin-4-yl-1H-pyrazol-4-yl)furo[3,2-c]pyridin-6-ylamine], the values for the IC50 on RON (human) and at MET (human) were 500 to 5000 nM and less than 500 nM, respectively.

As to `CC(Oc1c(N)ncc2c(-c3cnn(C4CCNCC4)c3)coc12)c1ccccc1F` (centres unmarked) [Example 374, 7-[1-(2-Fluorophenyl)ethoxy]-3-(1-piperidin-4-yl-1H-pyrazol-4-yl)furo[3,2-c]pyridin-6-ylamine], the half-inhibitory concentration (IC50) on RON (human) and at MET (human) was 500 to 5000 nM in each case.

`Cc1cccc(Cl)c1C(C)Oc1c(N)ncc2c(-c3cnn(C4CCNCC4)c3)coc12` (centres unmarked) [Example 375, 7-[1-(2-Chloro-6-methylphenyl)ethoxy]-3-(1-piperidin-4-yl-1H-pyrazol-4-yl)furo[3,2-c]pyridin-6-ylamine]: the concentration for half-maximal inhibition (IC50) was 500 to 5000 nM on RON (human) and less than 500 nM at MET (human).

As to `CC(Oc1c(N)ncc2c(-c3cnn(C4CCNCC4)c3)coc12)c1ccc(F)cc1` (centres unmarked) [Example 376, 7-[1-(4-Fluorophenyl)ethoxy]-3-(1-piperidin-4-yl-1H-pyrazol-4-yl)furo[3,2-c]pyridin-6-ylamine], the concentration for half-maximal inhibition (IC50) on RON (human) and at MET (human) was 500 to 5000 nM throughout.

For the compound `CC(Oc1c(N)ncc2c(-c3cnn(C4CCNCC4)c3)coc12)c1ccc(Cl)cc1` (centres unmarked) [Example 377, 7-[1-(4-Chlorophenyl)ethoxy]-3-(1-piperidin-4-yl-1H-pyrazol-4-yl)furo[3,2-c]pyridin-6-ylamine], the 50% inhibitory concentration (IC50) at RON (human) and at MET (human) was 500 to 5000 nM each time.

Turning to `CC(Oc1c(N)ncc2c(-c3cnn(C4CCNCC4)c3)coc12)c1ccc(Cl)cc1F` (centres unmarked) [Example 378, 7-[1-(4-Chloro-2-fluorophenyl)ethoxy]-3-(1-piperidin-4-yl-1H-pyrazol-4-yl)furo[3,2-c]pyridin-6-ylamine], the IC50 at RON (human) was 500 to 5000 nM; on MET (human), less than 500 nM.

Consider `CC(Oc1c(N)ncc2c(-c3cnn(C4CCNCC4)c3)coc12)c1c(F)ccc(F)c1Cl` (centres unmarked) [Example 379, 7-[1-(2-Chloro-3,6-difluorophenyl)ethoxy]-3-(1-piperidin-4-yl-1H-pyrazol-4-yl)furo[3,2-c]pyridin-6-ylamine], for which the concentration for half-maximal inhibition (IC50) at RON (human) and on MET (human) was less than 500 nM each time.

`Cc1c(F)cccc1C(C)Oc1c(N)ncc2c(-c3cnn(C4CCNCC4)c3)coc12` (centres unmarked) [Example 380, 7-[1-(3-Fluoro-2-methylphenyl)ethoxy]-3-(1-piperidin-4-yl-1H-pyrazol-4-yl)furo[3,2-c]pyridin-6-ylamine]: the IC50 on RON (human) is 500 to 5000 nM; on MET (human), less than 500 nM.

In the case of `CC(Oc1c(N)ncc2c(-c3cnn(C4CCNCC4)c3)coc12)c1ccc(Cl)c(F)c1` (centres unmarked) [Example 381, 7-[1-(4-Chloro-3-fluorophenyl)ethoxy]-3-(1-piperidin-4-yl-1H-pyrazol-4-yl)furo[3,2-c]pyridin-6-ylamine], the concentration for half-maximal inhibition (IC50) at RON (human) and at MET (human) was less than 500 nM each time.

As to `CC(Oc1c(N)ncc2c(-c3cnn(C4CCNCC4)c3)coc12)c1ccc(Cl)cc1Cl` (centres unmarked) [Example 382, 7-[1-(2,4-Dichlorophenyl)ethoxy]-3-(1-piperidin-4-yl-1H-pyrazol-4-yl)furo[3,2-c]pyridin-6-ylamine], the figures for the half-maximal inhibitory concentration (IC50) on RON (human) and on MET (human) were 500 to 5000 nM and less than 500 nM, respectively.

Consider `CC(Oc1c(N)ncc2c(-c3cnn(C4CCNCC4)c3)coc12)c1c(F)cccc1F` (centres unmarked) [Example 383, 7-[1-(2,6-Difluorophenyl)ethoxy]-3-(1-piperidin-4-yl-1H-pyrazol-4-yl)furo[3,2-c]pyridin-6-ylamine], for which the IC50 at RON (human) was 500 to 5000 nM; on MET (human), less than 500 nM.

In the case of `CC(Oc1c(N)ncc2c(-c3cnn(C4CCNCC4)c3)coc12)c1cc(F)cc(F)c1` (centres unmarked) [Example 384, 7-[1-(3,5-Difluorophenyl)ethoxy]-3-(1-piperidin-4-yl-1H-pyrazol-4-yl)furo[3,2-c]pyridin-6-ylamine], the IC50 on RON (human) and at MET (human) was 500 to 5000 nM in each case.

Broadly, the IC50 is the midpoint of a concentration-inhibition curve.
